Data reported in patent US9738604B2, “Ethynylbenzene derivatives” (Duke University, priority 2010, dated 2017).
In brackets after ≈: the same amount, converted by molar mass. Where two headings read alike, the source gives them in different places.

Assays:
N. gonorrhoeae FA19 = assay: MIC, N. gonorrhoeae drug-sensitive strain; format: cell-based; conditions: for MIC: Neisseria gonorrhoeae, read-out: MIC N. gonorrhoeae FA 19
N. gonorrhoeae 35/02 [1] = assay: MIC, N. gonorrhoeae drug-resistant strain; format: cell-based; conditions: drug-resistant strain 35/02; for MIC: Neisseria gonorrhoeae
E. coli W3110 = assay: microbe, parasite or virus in culture; format: cell-based; conditions: for MIC: Escherichia coli, W3110, 22 h, read-out: MIC E. coli W3110
[2] = system: Acinetobacter Baumannii antibiotic susceptible strain (Sus. A.b. Isolate); assay: Disk diffusion assay, antibiotic susceptible strain; format: cell-based; design: key to diameter of the growth inhibition, Sus. A.b. Isolate: A: no detectable inhibition; B: 6-10 mm; C: 11-15 mm; D: ≧16; conditions: 2 μg of compound per disc, disc 6 mm in diameter; for zone of inhibition at 2 µg/disc: Acinetobacter baumannii, read-out: diameter of the growth inhibition, Sus. A.b. Isolate
E. coli W3110RL = assay: microbe, parasite or virus in culture; format: cell-based; conditions: for MIC E. coli W3110RL: E. coli with lpxC of R. leguminosarum, 22 hours at 37° C., MTT; for MIC: Escherichia coli, W3110RL, 22 h, read-out: MIC E. coli W3110RL
E. coli W3110PA = assay: microbe, parasite or virus in culture; format: cell-based; conditions: for MIC E. coli W3110PA: E. coli with lpxC of P. aeruginosa, 22 hours at 37° C., MTT; for MIC: Escherichia coli, W3110PA, 22 h, read-out: MIC E. coli W3110PA
P. aeruginosa (PAO1) = assay: MIC, P. aeruginosa; format: cell-based; conditions: for MIC: Pseudomonas aeruginosa, read-out: MIC P. aeruginosa (PAO1)
[3] = system: Acinetobacter Baumannii multidrug-resistant strain (MDR A.b. Isolate); assay: Disk diffusion assay, multidrug-resistant strain; format: cell-based; design: key to diameter of the growth inhibition, MDR A.b. Isolate: A: no detectable inhibition; B: 6-10 mm; C: 11-15 mm; D: ≧16; conditions: 2 μg of compound per disc, disc 6 mm in diameter; for zone of inhibition at 2 µg/disc: Acinetobacter baumannii, read-out: diameter of the growth inhibition, MDR A.b. Isolate
N. gonorrhoeae 35/02 [4] = conditions: resistance profile of strain 35/02; cited from earlier work
[5] = P. aeruginosa PAO1, 22 hours at 37° C., MTT

| Molecule | diameter of the growth inhibition, Sus. A.b. Isolate [2] | diameter of the growth inhibition, MDR A.b. Isolate [3] | MIC (E. coli W3110) [µg/mL] | zone of inhibition at 2 µg/disc [2] [mm] | MIC (E. coli W3110RL) [µg/mL] | MIC (E. coli W3110PA) [µg/mL] | also measured |
| --- | --- | --- | --- | --- | --- | --- | --- |
| C[C@@H](O)[C@H](NC(=O)c1ccc(C#CC#Cc2ccc(N)cc2)cc1)C(=O)NO [CPD-011, (2S,3R)-2-{4′-[(4″-aminophenyl)buta-1′,3′-diynyl]benzamido}-1,3-dihydroxybutanamide] | A | A |  |  |  |  | MIC N. gonorrhoeae FA 19 (N. gonorrhoeae FA19): C (2-4 μg/mL); MIC N. gonorrhoeae 35/02 (N. gonorrhoeae 35/02 [1]): D (5-7 μg/mL); MIC E. coli W3110 (E. coli W3110): A (key: A: <1 μg/mL; B: 1-10 μg/mL; C: 11-50 μg/mL; D: 51-100 μg/mL; E: >100 μg/mL); MIC E. coli W3110RL (E. coli W3110RL): B (1-10 μg/mL); MIC E. coli W3110PA (E. coli W3110PA): A (<1 μg/mL); MIC P. aeruginosa (PAO1) (P. aeruginosa (PAO1); [5]): A (<1 μg/mL) |
| C[C@@H](O)[C@H](NC(=O)c1ccc(C#CC#Cc2cccc(N)c2)cc1)C(=O)NO [CPD-012, (2S,3R)-2-{4′-[(3″-aminophenyl)buta-1′,3′-diynyl]benzamido}-1,3-dihydroxybutanamide] | A | A |  |  |  |  | MIC E. coli W3110 (E. coli W3110): A (key: A: <1 μg/mL; B: 1-10 μg/mL; C: 11-50 μg/mL; D: 51-100 μg/mL; E: >100 μg/mL); MIC E. coli W3110RL (E. coli W3110RL): B (1-10 μg/mL); MIC E. coli W3110PA (E. coli W3110PA): A (<1 μg/mL); MIC P. aeruginosa (PAO1) (P. aeruginosa (PAO1); [5]): A (<1 μg/mL) |
| C[C@@H](O)[C@H](NC(=O)c1ccc(C#CC#Cc2ccccc2N)cc1)C(=O)NO [CPD-013, (2S,3R)-2-{4′-[(2″-aminophenyl)buta-1′,3′-diynyl]benzamido}-1,3-dihydroxybutanamide] | A | A |  |  |  |  | MIC N. gonorrhoeae FA 19 (N. gonorrhoeae FA19): B (0.1-1 μg/mL); MIC N. gonorrhoeae 35/02 (N. gonorrhoeae 35/02 [1]): C (2-4 μg/mL); MIC E. coli W3110 (E. coli W3110): A (key: A: <1 μg/mL; B: 1-10 μg/mL; C: 11-50 μg/mL; D: 51-100 μg/mL; E: >100 μg/mL); MIC E. coli W3110RL (E. coli W3110RL): C (11-50 μg/mL); MIC E. coli W3110PA (E. coli W3110PA): A (<1 μg/mL); MIC P. aeruginosa (PAO1) (P. aeruginosa (PAO1); [5]): B (1-10 μg/mL) |
| CC(C)(O)[C@H](NC(=O)c1ccc(C#CC#Cc2ccc(N)cc2)cc1)C(=O)NO [CPD-037, (2S)-2-({4′-[4′-(4′-aminophenyl)buta-1′,3′-diyn-1-yl]phenyl}formamido)-N,3′-dihydroxy-3′-methylbutanamide] |  |  | < 1 | 11 to 15 | 1 to 10 (≈ 2.55 to 25.5 µM) | < 1 | MIC (P. aeruginosa (PAO1); PAO1, 22 h): < 1 µg/mL; zone of inhibition at 2 µg/disc [3]: 6 to 10 mm |
| CC(C)(N)[C@H](NC(=O)c1ccc(C#CC#Cc2ccc(N)cc2)cc1)C(=O)NO [CPD-040, (2S)-3-amino-2-({4′-[4′-(4′-aminophenyl)buta-1′,3′-diyn-1-yl]phenyl}formamido)-N-hydroxy-3-methylbutanamide] |  |  | < 1 | 6 to 10 | 1 to 10 (≈ 2.56 to 25.6 µM) | < 1 | MIC (N. gonorrhoeae FA19): 2 to 4 µg/mL (≈ 5.12 to 10.2 µM); MIC (N. gonorrhoeae 35/02 [1]): 5 to 7 µg/mL (≈ 12.8 to 17.9 µM); MIC (P. aeruginosa (PAO1); PAO1, 22 h): < 1 µg/mL; zone of inhibition at 2 µg/disc [3]: 6 to 10 mm |
| C[C@](O)(c1ccc(O)cc1)[C@H](NC(=O)c1ccc(C#CC#Cc2ccc(N)cc2)cc1)C(=O)NO [CPD-051, 4-((4-aminophenyl)buta-1,3-diynyl)-N-((2S)-3-hydroxy-1-(hydroxyamino)-3-(4-hydroxyphenyl)-1-oxobutan-2-yl)benzamide] | A | A | < 1 |  | 51 to 100 (≈ 109 to 213 µM) | < 1 | MIC (P. aeruginosa (PAO1); PAO1, 22 h): < 1 µg/mL |
| C[C@@](O)(C(F)F)[C@H](NC(=O)c1ccc(C#CC#Cc2ccc(N)cc2)cc1)C(=O)NO [CPD-058, 4-((4-aminophenyl)buta-1,3-diynyl)-N-((2S,3S)-4,4-difluoro-3-hydroxy-1-(hydroxyamino)-3-methyl-1-oxobutan-2-yl)benzamide] |  |  | < 1 | 11 to 15 | < 1 | < 1 | MIC (P. aeruginosa (PAO1); PAO1, 22 h): < 1 µg/mL; zone of inhibition at 2 µg/disc [3]: 11 to 15 mm |
| C[C@@](O)(CF)[C@H](NC(=O)c1ccc(C#CC#Cc2ccc(N)cc2)cc1)C(=O)NO [CPD-061, 4-((4-aminophenyl)buta-1,3-diynyl)-N-((2S,3S)-4-fluoro-3-hydroxy-1-(hydroxyamino)-3-methyl-1-oxobutan-2-yl)benzamide] |  |  | < 1 |  | 51 to 100 (≈ 125 to 244 µM) | 1 to 10 (≈ 2.44 to 24.4 µM) | MIC (P. aeruginosa (PAO1); PAO1, 22 h): 1 to 10 µg/mL (≈ 2.44 to 24.4 µM) |
| C[C@](O)(c1ccc(CO)cc1)[C@H](NC(=O)c1ccc(C#CC#Cc2ccc(N)cc2)cc1)C(=O)NO [CPD-062, 4-((4-aminophenyl)buta-1,3-diynyl)-N-((2S,3S)-3-hydroxy-1-(hydroxyamino)-3-(4-(hydroxymethyl)phenyl)-1-oxobutan-2-yl)benzamide] |  |  | < 1 |  | 51 to 100 (≈ 105 to 207 µM) | < 1 | MIC (P. aeruginosa (PAO1); PAO1, 22 h): 1 to 10 µg/mL (≈ 2.07 to 20.7 µM) |
| CC(C)(N)[C@H](NC(=O)c1ccc(C#CC#Cc2ccccc2N)cc1)C(=O)NO [CPD-065, (S)-N-(3-amino-1-(hydroxyamino)-3-methyl-1-oxobutan-2-yl)-4-((2-aminophenyl)buta-1,3-diynyl)benzamide] |  |  |  |  |  |  | MIC (N. gonorrhoeae FA19): 0.1 to 1 µg/mL (≈ 0.256 to 2.56 µM); MIC (N. gonorrhoeae 35/02 [1]): 2 to 4 µg/mL (≈ 5.12 to 10.2 µM) |
| CC(C)(O)[C@H](NC(=O)c1ccc(C#CC#Cc2ccccc2N)cc1)C(=O)NO [CPD-066, (S)-4-((2-aminophenyl)buta-1,3-diynyl)-N-(3-hydroxy-1-(hydroxyamino)-3-methyl-1-oxobutan-2-yl)benzamide] |  |  |  |  |  |  | MIC (N. gonorrhoeae FA19): 0.1 to 1 µg/mL (≈ 0.255 to 2.55 µM); MIC (N. gonorrhoeae 35/02 [1]): 2 to 4 µg/mL (≈ 5.11 to 10.2 µM) |
| C[C@@](O)(C(F)F)[C@H](NC(=O)c1ccc(C#CC#Cc2ccccc2N)cc1)C(=O)NO [CPD-067, 4-((2-aminophenyl)buta-1,3-diynyl)-N-((2S,3S)-4,4-difluoro-3-hydroxy-1-(hydroxyamino)-3-methyl-1-oxobutan-2-yl)benzamide] |  |  |  | 6 to 10 |  |  | MIC (N. gonorrhoeae FA19): < 0.1 µg/mL; MIC (N. gonorrhoeae 35/02 [1]): 0.1 to 1 µg/mL (≈ 0.234 to 2.34 µM); zone of inhibition at 2 µg/disc [3]: 6 to 10 mm |
| CC1(C)S[C@@H]2[C@H](NC(=O)C(C(=O)O)c3ccccc3)C(=O)N2[C@H]1C(=O)O (some centres unmarked) [Carbenicillin] | A | A |  |  |  |  |  |
| O=C(N[C@H](CO)[C@H](O)c1ccc([N+](=O)[O-])cc1)C(Cl)Cl [Chloramphenicol] |  | A |  | 6 to 10 |  |  |  |
| O=C(O)c1cn(C2CC2)c2cc(N3CCNCC3)c(F)cc2c1=O [Ciprofloxacin] |  | A |  | ≥ 16 |  |  |  |
| C[C@@H](O)[C@H]1C(=O)N2C(C(=O)O)=C(SCCN=CN)C[C@H]12 [Imipenem] |  | A |  | ≥ 16 |  |  |  |
| CN(C)[C@@H]1C(O)=C(C(N)=O)C(=O)[C@@]2(O)C(O)=C3C(=O)c4c(O)cccc4[C@@](C)(O)[C@H]3C[C@@H]12 [Tetracycline] |  | A |  | 6 to 10 |  |  |  |
| CO/N=C(\C(=O)N[C@@H]1C(=O)N2C(C(=O)O)=C(CSc3nc(=O)c(=O)[nH]n3C)CS[C@H]12)c1csc(N)n1 [ceftriaxone, reference compound] | A | A |  |  |  |  | MIC (N. gonorrhoeae 35/02 [4]): 0.12 µg/mL (≈ 0.216 µM) |
| C[C@@H](O)[C@H](NC(=O)c1ccc(C#Cc2ccc(CN3CCOCC3)cc2)cc1)C(=O)NO [drawing 320] |  |  | < 1 |  | > 100 | < 1 | MIC (P. aeruginosa (PAO1); [5]): < 1 µg/mL |
| C[C@@H](O)[C@H](NC(=O)c1ccc(C#Cc2ccc(CN3CCOCC3)cc2)cc1)C(=O)NO [drawing 321] |  |  |  |  |  |  | MIC (N. gonorrhoeae FA19): 8 µg/mL (≈ 18.3 µM); MIC (N. gonorrhoeae 35/02 [1]): 8 µg/mL (≈ 18.3 µM) |
| Polymyxin B | B (6-10 mm) | B (6-10 mm) |  |  |  |  |  |
| penicillin |  |  |  |  |  |  | MIC (N. gonorrhoeae 35/02 [4]): 6 µg/mL |
